The target in experiment [1] is T1, Alpha-2A adrenergic receptor (Homo sapiens, UniProt P08913).
T1 sequence (P08913 whole entry): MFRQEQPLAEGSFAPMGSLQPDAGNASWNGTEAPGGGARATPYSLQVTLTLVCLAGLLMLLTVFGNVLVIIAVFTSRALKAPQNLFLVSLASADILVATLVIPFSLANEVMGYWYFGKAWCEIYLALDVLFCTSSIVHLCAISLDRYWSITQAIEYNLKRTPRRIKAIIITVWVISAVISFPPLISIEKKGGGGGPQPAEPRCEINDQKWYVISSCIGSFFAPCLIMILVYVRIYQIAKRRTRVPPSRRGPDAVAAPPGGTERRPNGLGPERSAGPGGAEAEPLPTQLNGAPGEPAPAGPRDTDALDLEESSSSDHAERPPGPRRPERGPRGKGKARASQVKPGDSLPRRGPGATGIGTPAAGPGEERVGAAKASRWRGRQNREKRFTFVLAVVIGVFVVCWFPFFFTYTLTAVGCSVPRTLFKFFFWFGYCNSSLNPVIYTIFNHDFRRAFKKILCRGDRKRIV
It counts as functional, cell-based.

The target in experiment [2] is T2, Alpha-2C adrenergic receptor (Homo sapiens, UniProt P18825).
T2 sequence (P18825 whole entry): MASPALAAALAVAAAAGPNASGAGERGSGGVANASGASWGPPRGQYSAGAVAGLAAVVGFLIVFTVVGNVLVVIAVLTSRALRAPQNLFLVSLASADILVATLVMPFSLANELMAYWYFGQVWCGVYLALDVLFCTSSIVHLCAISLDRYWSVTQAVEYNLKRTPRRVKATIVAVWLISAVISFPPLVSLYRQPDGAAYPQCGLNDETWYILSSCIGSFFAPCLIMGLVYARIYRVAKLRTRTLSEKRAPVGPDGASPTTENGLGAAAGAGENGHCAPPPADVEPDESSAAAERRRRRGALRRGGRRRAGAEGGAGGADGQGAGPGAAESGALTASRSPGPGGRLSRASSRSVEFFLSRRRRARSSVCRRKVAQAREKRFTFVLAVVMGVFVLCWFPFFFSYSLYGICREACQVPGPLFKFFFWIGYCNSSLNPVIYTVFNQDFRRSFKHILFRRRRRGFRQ
The format is functional.

A further experiment addresses T3, B2 bradykinin receptor (Homo sapiens, UniProt P30411).
T3 sequence (P30411 whole entry): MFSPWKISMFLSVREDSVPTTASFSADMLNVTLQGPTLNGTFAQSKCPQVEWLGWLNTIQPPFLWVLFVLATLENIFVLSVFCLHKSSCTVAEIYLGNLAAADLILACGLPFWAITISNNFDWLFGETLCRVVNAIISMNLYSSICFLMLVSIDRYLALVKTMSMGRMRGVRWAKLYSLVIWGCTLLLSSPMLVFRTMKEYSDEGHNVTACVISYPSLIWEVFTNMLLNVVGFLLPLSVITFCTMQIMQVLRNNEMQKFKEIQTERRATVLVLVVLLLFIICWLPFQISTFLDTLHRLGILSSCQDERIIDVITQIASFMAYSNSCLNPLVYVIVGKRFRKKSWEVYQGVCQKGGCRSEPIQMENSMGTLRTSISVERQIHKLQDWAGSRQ

The target in experiment [3] is Neuronal acetylcholine receptor subunit alpha-4 (Homo sapiens, UniProt P43681).
For another experiment, the target named is D(1A) dopamine receptor (Homo sapiens, UniProt P21728). The format is functional, cell-based.
The target in experiment [4] is Gamma-aminobutyric acid receptor subunit alpha-1 (Rattus norvegicus, UniProt P62813).
The target in experiment [5] is 5-hydroxytryptamine receptor 2B (Homo sapiens, UniProt P41595). It counts as functional, cell-based.
The target of a further experiment is Melanocortin receptor 3 (Homo sapiens, UniProt P41968).
In the next experiment the target is T4, Progesterone receptor (Homo sapiens, UniProt P06401).
T4 sequence (P06401 whole entry): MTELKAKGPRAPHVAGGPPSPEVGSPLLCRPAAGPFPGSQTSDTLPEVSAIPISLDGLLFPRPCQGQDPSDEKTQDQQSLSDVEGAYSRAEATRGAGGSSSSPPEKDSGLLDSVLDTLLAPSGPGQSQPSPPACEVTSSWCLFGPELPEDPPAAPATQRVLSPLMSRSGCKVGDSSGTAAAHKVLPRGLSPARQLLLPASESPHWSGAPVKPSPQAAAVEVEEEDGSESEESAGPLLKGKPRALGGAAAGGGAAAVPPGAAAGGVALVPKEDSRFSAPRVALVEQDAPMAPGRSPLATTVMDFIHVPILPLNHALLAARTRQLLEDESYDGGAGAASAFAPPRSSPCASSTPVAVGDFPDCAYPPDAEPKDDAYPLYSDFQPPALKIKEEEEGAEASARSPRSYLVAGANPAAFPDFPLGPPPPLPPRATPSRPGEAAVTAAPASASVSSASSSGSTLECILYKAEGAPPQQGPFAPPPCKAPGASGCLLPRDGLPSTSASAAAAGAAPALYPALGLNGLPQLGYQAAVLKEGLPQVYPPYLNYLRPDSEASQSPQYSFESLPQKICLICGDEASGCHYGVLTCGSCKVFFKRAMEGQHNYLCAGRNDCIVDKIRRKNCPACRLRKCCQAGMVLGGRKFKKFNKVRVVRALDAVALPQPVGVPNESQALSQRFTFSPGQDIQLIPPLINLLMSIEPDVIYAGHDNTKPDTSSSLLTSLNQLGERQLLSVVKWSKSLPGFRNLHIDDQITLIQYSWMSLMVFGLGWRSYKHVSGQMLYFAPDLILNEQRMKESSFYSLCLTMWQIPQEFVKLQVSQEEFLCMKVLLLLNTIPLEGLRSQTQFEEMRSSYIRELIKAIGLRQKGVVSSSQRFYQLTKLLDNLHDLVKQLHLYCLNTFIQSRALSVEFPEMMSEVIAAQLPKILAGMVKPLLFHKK
It counts as functional.

The next experiment addresses T5, Thromboxane A2 receptor (Homo sapiens, UniProt P21731).
T5 sequence (P21731 whole entry): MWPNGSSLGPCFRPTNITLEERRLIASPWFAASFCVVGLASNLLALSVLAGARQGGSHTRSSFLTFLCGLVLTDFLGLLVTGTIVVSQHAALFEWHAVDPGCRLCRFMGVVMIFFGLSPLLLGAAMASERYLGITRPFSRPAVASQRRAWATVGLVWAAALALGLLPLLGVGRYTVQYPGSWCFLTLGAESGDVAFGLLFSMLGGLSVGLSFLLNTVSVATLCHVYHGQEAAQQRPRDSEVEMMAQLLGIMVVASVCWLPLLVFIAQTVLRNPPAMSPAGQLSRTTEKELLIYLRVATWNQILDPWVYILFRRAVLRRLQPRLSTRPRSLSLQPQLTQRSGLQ

The target in experiment [6] is Sodium-dependent noradrenaline transporter (Homo sapiens, UniProt P23975).

Bounds are passed on as bounds.
Further: assay procedure not described here.

Sequence of Gamma-aminobutyric acid receptor subunit alpha-1 (P62813 whole entry): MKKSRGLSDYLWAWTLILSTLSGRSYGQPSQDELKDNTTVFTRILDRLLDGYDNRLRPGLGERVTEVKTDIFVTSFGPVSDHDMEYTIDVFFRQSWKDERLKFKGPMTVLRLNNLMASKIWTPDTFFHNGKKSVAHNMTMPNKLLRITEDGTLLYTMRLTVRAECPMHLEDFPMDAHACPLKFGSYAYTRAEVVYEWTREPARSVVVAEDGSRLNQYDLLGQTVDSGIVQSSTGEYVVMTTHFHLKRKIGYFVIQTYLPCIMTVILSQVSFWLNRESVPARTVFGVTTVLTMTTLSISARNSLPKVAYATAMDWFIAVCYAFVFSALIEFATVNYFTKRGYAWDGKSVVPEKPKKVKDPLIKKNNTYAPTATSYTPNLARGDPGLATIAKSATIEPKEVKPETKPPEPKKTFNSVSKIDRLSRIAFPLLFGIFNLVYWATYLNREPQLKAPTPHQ
Sequence of D(1A) dopamine receptor (P21728 whole entry): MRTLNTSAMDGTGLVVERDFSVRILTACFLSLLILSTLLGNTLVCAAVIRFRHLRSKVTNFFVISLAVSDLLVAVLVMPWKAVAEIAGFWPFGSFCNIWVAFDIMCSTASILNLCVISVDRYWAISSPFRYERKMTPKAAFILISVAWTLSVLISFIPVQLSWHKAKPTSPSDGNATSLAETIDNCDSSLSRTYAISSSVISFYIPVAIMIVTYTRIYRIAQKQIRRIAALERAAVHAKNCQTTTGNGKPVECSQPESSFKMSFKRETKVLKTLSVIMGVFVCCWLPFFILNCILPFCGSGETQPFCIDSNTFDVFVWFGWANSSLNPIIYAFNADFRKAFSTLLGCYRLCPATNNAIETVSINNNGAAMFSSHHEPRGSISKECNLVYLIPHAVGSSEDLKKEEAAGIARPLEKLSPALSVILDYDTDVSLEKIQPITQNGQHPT
Sequence of Melanocortin receptor 3 (P41968 whole entry): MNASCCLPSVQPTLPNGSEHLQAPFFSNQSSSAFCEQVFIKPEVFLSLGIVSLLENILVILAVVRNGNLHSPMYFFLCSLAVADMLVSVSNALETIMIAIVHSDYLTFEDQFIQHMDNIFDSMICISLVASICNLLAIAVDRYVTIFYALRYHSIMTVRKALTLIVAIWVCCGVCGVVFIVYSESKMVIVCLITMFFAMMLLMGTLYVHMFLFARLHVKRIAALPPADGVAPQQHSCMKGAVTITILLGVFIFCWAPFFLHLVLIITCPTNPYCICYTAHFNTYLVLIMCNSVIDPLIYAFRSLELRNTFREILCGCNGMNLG
Sequence of Neuronal acetylcholine receptor subunit alpha-4 (P43681 whole entry): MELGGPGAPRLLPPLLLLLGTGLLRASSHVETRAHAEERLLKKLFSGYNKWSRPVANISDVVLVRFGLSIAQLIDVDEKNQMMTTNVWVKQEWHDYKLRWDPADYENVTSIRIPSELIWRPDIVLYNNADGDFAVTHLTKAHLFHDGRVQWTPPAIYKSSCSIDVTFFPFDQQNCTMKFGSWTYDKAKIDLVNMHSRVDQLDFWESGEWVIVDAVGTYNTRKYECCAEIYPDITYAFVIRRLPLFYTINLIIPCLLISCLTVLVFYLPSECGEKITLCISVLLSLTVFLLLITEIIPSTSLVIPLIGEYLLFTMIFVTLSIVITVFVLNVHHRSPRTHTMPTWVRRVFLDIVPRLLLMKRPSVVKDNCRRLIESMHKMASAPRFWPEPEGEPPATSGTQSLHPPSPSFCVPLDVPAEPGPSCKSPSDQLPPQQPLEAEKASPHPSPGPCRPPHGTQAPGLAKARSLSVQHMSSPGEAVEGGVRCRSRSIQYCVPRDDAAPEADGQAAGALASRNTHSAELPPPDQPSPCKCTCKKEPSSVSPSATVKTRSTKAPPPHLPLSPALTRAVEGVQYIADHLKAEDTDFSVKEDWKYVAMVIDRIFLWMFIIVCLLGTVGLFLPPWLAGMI
Sequence of 5-hydroxytryptamine receptor 2B (P41595 whole entry): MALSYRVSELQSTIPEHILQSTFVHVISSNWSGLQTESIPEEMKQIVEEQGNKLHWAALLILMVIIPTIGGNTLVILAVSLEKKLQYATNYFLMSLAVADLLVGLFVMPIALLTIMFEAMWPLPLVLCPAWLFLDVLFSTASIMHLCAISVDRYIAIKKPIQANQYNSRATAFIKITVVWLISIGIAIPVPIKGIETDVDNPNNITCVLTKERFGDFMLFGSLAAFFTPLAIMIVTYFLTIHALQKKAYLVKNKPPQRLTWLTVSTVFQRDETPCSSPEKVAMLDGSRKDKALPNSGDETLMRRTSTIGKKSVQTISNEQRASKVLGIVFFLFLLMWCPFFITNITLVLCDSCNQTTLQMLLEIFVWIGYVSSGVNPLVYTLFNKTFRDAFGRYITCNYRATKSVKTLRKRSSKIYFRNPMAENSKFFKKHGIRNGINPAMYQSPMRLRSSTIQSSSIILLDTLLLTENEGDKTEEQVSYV
Sequence of Sodium-dependent noradrenaline transporter (P23975 whole entry): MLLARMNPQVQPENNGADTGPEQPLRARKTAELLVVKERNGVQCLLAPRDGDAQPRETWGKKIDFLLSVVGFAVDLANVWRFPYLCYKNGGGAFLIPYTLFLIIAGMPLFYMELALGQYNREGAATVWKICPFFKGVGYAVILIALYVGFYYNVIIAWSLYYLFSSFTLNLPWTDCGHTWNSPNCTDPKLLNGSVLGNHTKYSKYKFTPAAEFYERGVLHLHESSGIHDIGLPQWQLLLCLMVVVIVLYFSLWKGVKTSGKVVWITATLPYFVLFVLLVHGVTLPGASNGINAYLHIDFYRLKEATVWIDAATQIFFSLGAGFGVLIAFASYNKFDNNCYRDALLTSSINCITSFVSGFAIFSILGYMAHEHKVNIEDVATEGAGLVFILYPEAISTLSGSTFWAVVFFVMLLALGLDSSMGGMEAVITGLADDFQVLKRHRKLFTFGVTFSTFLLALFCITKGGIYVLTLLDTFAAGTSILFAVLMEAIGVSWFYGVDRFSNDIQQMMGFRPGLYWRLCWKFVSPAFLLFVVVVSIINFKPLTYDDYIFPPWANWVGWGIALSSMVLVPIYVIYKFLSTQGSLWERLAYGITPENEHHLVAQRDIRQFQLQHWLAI

For the compound `CCN1CCCC1CNC(=O)c1cc(S(=O)(=O)CC)ccc1OC` (stereo not given) [SULTOPRIDE], the AC50 in experiment [1] was greater than 30 µM; in experiment [2], 4.5 µM; at B2 bradykinin receptor it was greater than 30 µM; in experiment [3], greater than 30 µM; at D(1A) dopamine receptor, greater than 30 µM; in [4], greater than 30 µM. Also, the AC50 in experiment [5] is 1.3 µM; on Melanocortin receptor 3, greater than 30 µM; on Progesterone receptor it was greater than 30 µM; at Thromboxane A2 receptor, greater than 30 µM; in experiment [6], greater than 30 µM.

Consider `Cn1c(=O)c2c(ncn2CCOC(=O)C(C)(C)Oc2ccc(Cl)cc2)n(C)c1=O` [THEOFIBRATE], for which the AC50 (in experiment [1]; in experiment [2]; at B2 bradykinin receptor; in [3]; at D(1A) dopamine receptor; in [4]) was greater than 30 µM each time. Also, the half-maximal activity concentration (AC50) (in [5]; on Melanocortin receptor 3; on Progesterone receptor; at Thromboxane A2 receptor; in experiment [6]) was greater than 30 µM in each case.

Turning to `COc1cc(C(=O)NC2CCCNC2)cc(OC)c1OC` (stereo not given) [TROXIPIDE], the concentration at half-maximal activity (AC50) (in experiment [1]; in experiment [2]; on B2 bradykinin receptor; in experiment [3]; on D(1A) dopamine receptor; in [4]) was greater than 30 µM throughout. For the same compound, the AC50 (in [5]; on Melanocortin receptor 3; at Progesterone receptor; on Thromboxane A2 receptor; in experiment [6]) was greater than 30 µM each time.

On to `CC(C)(C)NCC(O)c1ccccc1Cl` (stereo not given) [TULOBUTEROL], for which the AC50 (in experiment [1]; in experiment [2]; at B2 bradykinin receptor; in experiment [3]; at D(1A) dopamine receptor; in experiment [4]) was greater than 30 µM each time. The concentration at half-maximal activity (AC50) (in [5]; at Melanocortin receptor 3; at Progesterone receptor; on Thromboxane A2 receptor; in experiment [6]) was greater than 30 µM throughout.

As for `CC(c1cc2ccccc2s1)N(O)C(N)=O` (stereo not given) [ZILEUTON], the AC50 (in [1]; in experiment [2]; on B2 bradykinin receptor; in [3]; on D(1A) dopamine receptor; in [4]) was greater than 10 µM throughout. For the same compound, the AC50 in experiment [5] is greater than 10 µM; on Melanocortin receptor 3, greater than 10 µM; at Progesterone receptor it was greater than 30 µM; at Thromboxane A2 receptor it was greater than 10 µM; in experiment [6] it was greater than 10 µM.

For orientation: AC50 means the concentration at which the activity in the assay is half-maximal. Lower therefore signals activity at low concentration.
